What was measured:
COS-7 = experiment: MTT assay, COS-7 normal cells; assay type: cell-based, monkey; conditions: Primates, COS-7, 72 h of incubation, normal cell line, read-out: IC50 values ± SD, COS-7
From the text: (§1) The impact of acridine spiro derivatives 6–10 (Figure 13) on the metabolic activity of various tumor cell lines HCT-116 (human colorectal carcinoma), Jurkat (human leukemia cells), HeLa (human cervical adenocarcinoma), MDA-MB-231, and MCF-7 (human breast adenocarcinoma), and normal cell lines COS-7 (monkey kidney cells) and BJ-5ta (skin fibroblasts) was investigated using the MTT assay. This assay measures the conversion of yellow 3-(4,5-dimethylthiazol-2-yl)-2,5-diphenyltetrazolium bromide (MTT) to insoluble purple formazan by metabolically active cells. The antiproliferative activities of the tested compounds were determined based on the results from the MTT assay, and the inhibitory concentration values (IC50) are presented in Table 5.
(§2) The human cancer cell lines employed in this study were sourced from reputable institutions, including the American Type Culture Collection (ATCC; Manassas, VA, USA) and the European Collection of Authenticated Cell Cultures (ECACC, Salisbury, UK). Specifically, HeLa (93021013, human cervical adenocarcinoma), HCT116 (CCL-247TM, human colorectal carcinoma), and Jurkat (88042803, human leukemic T-cell lymphoma) were cultured in RPMI 1640 medium (Biosera, Kansas City, MO, USA). In contrast, MCF-7 (HTB-22TM, human breast adenocarcinoma, ER+), MDA-MB-231 (HTB-26TM, human breast adenocarcinoma, ER−), and COS-7 (CRL-1651TM, kidney fibroblasts) were nurtured in high-glucose Dulbecco’s Modified Eagle Medium (DMEM) supplemented with sodium pyruvate (Biosera). Furthermore, BJ-5ta (CRL-4001TM, human dermal fibroblasts) was cultured in a composite medium of high-glucose DMEM and M199 (4:1) (Biosera), supplemented with Hygromycin B (0.01 mg/mL; Merck, Darmstadt, Germany). All culture media were enriched with a 10% fetal bovine serum (FBS; Gibco, Thermo Scientific, Rockford, IL, USA) and an antibiotic/antimycotic solution (Merck) to ensure optimal growth conditions. The cells were meticulously maintained within a humidified environment containing 5% CO2 at 37 °C. Regular screenings for mycoplasma contamination were conducted using Hoechst 33342 staining (Merck), confirming the integrity of the cell lines.
(§3) To assess the antiproliferative impact of the synthesized compounds 6–10, their half-maximal inhibitory concentration (IC50) and the MTT colorimetric assay were employed. MDA-MB-231 and MCF-7 cells were seeded into 96-well microplates (SARSTEDT, Nümbrecht, Germany) at a density of 5 × 10^3 cells per well. After 24 h of cell seeding, various concentrations (100, 50, and 10 µmol/L) of acridine derivatives 6–10 were introduced, alongside cisplatin (utilized as a reference) at concentrations of 5, 10, 20, 50, and 100 µmol/L. Subsequent to 24, 48, and 72 h of treatment, the cells in each well underwent incubation with MTT (5 mg/mL, Sigma-Aldrich Chemie, Steinheim, Germany) for 4 h at 37 °C in the dark. During this period, mitochondrial oxidoreductases metabolized MTT, forming insoluble formazan. Following this, 100 µL of SDS (10% […]) was added to dissolve the formazan crystals, and the cells were incubated for an additional 12 h. Absorbance at 540 nm was measured using the automated Cytation™ 3 Cell Imaging Multi-Mode Reader (Biotek, Winooski, VT, USA). Each test was performed in triplicate, and three independent experiments were conducted to ensure precision and reliability.

MDA-MB-231 = experiment: MTT assay, MDA-MB-231 cells; assay type: cell-based, human; conditions: Homo sapiens, MDA-MB-231, 72 h of incubation, read-out: IC50 values ± SD, MDA-MB-231
From the text: as §1, §2, §3

BJ-5ta = experiment: MTT assay, BJ-5ta normal fibroblasts; assay type: cell-based, human; conditions: Homo sapiens, Fibroblast, 72 h of incubation, normal cell line, read-out: IC50 values ± SD, BJ-5ta
From the text: as §1, §2, §3

HCT-116 = experiment: MTT assay, HCT-116 cells; assay type: cell-based, human; conditions: Homo sapiens, HCT-116; MTT, 72 h of incubation; read-out: IC50 values ± SD, HCT-116
From the text: as §1, §2, §3

MCF-7 = experiment: MTT assay, MCF-7 cells; assay type: cell-based, human; conditions: Homo sapiens, MCF7, 72 h of incubation, read-out: IC50 values ± SD, MCF-7
From the text: as §1, §2, §3

HeLa = experiment: MTT assay, HeLa cells; assay type: cell-based, human; conditions: Homo sapiens, HeLa, 72 h of incubation, read-out: IC50 values ± SD, HeLa
From the text: as §1, §2, §3

Jurkat = experiment: MTT assay, Jurkat cells; assay type: cell-based, human; conditions: Homo sapiens, Jurkat; MTT, 72 h of incubation; read-out: IC50 values ± SD, Jurkat
From the text: as §1, §2, §3

Row | SMILES | IC50 (COS-7) [µM] | IC50 (MDA-MB-231) [µM] | IC50 (BJ-5ta) [µM] | IC50 (HCT-116) [µM] | melting point | IC50 (MCF-7) [µM] | IC50 (HeLa) [µM] | IC50 (Jurkat) [µM]
1 | COc1ccc(N2C(=O)CS/C2=N\N2C(=O)C(C#N)=CC23c2ccccc2Nc2ccccc23)cc1 [7b, 1′-{[(2Z)-3-(4-Methoxyphenyl)-4-oxo-1,3-thiazolidin-2-ylidene]amino}-5′-oxo-1′,5′-dihydro-10H-spiro[acridine-9,2′-pyrrole]-4′-carbonitrile] | > 100 | > 100 | > 100 | > 100 | 207 to 210 °C (dec.) | 30.8 ± 5.22 | > 100 | > 100
2 | CCCC1S/C(=N\N2C(=O)C(C#N)=CC23c2ccccc2Nc2ccccc23)N(c2ccc(OC)cc2)C1=O (centres unmarked) [10b, 1′-{[(2Z)-3-(4-Methoxyphenyl)-4-oxo-5-propyl-1,3-thiazolidin-2-ylidene]amino}-5′-oxo-1′,5′-dihydro-10H-spiro[acridine-9,2′-pyrrole]-4′-carbonitrile] | > 100 | > 100 | > 100 | > 100 | 247 to 250 °C (dec.) | > 100 | > 100 | > 100
3 | N#CC1=CC2(c3ccccc3Nc3ccccc32)N(/N=C2\SCC(=O)N2c2ccccc2)C1=O [7a, 5′-Oxo-1′-{[(2Z)-4-oxo-3-phenyl-1,3-thiazolidin-2-ylidene]amino}-1′,5′-dihydro-10H-spiro[acridine-9,2′-pyrrole]-4′-carbonitrile] | > 100 | > 100 | > 100 | 41.3 ± 2.3 | 241 to 243 °C (dec.) | 21.62 ± 0.1 | 51.2 ± 3.32 | > 100
4 | CCOC(=O)/C=C1\S/C(=N\N2C(=O)C(C#N)=CC23c2ccccc2Nc2ccccc23)N(c2ccc(F)cc2)C1=O [8d, Ethyl 2-[(2Z,5Z)-2-({4′-cyano-5′-oxo-1′,5′-dihydro-10H-spiro[acridine-9,2′-pyrrol]-1′-yl}imino)-3-(4-fluorophenyl)-4-oxo-1,3-thiazolidin-5-ylidene]acetate] | 9.45 ± 0.24 | 7.85 ± 0.97 | 7.32 ± 0.35 | 5.46 ± 0.02 | 269 to 272 °C (dec.) | 8.52 ± 0.79 | 5.97 ± 0.15 | 5.64 ± 0.09
5 | CCCC1S/C(=N\N2C(=O)C(C#N)=CC23c2ccccc2Nc2ccccc23)N(c2ccccc2)C1=O (centres unmarked) [10a, 5′-Oxo-1′-{[(2Z)-4-oxo-3-phenyl-5-propyl-1,3-thiazolidin-2-ylidene]amino}-1′,5′-dihydro-10H-spiro[acridine-9,2′-pyrrole]-4′-carbonitrile] | > 100 | > 100 | > 100 | > 100 | 238 to 240 °C (dec.) | > 100 | > 100 | > 100
6 | N#CC1=CC2(c3ccccc3Nc3ccccc32)N(/N=C2\SCC(=O)N2c2ccc([N+](=O)[O-])cc2)C1=O [7e, 1′-{[(2Z)-3-(4-Nitrophenyl)-4-oxo-1,3-thiazolidin-2-ylidene]amino}-5′-oxo-1′,5′-dihydro-10H-spiro[acridine-9,2′-pyrrole]-4′-carbonitrile] | > 100 | > 100 | > 100 | 46.2 ± 2.02 | 244 to 247 °C (dec.) | > 100 | > 100 | 35.5 ± 2.31
7 | N#CC1=CC2(c3ccccc3Nc3ccccc32)N(NC(=S)Nc2ccccc2)C1=O [6a, 3-{4′-Cyano-5′-oxo-1′,5′-dihydro-10H-spiro[acridine-9,2′-pyrrol]-1′-yl}-1-phenylthiourea] | > 100 | > 100 | 92.2 ± 1.6 | 14.3 ± 5.09 | 194 to 195 °C (dec.) | > 100 | 67.2 ± 8.65 | 11.6 ± 4.3

Reference: article PMC10537105, “Derivatives Incorporating Acridine, Pyrrole, and Thiazolidine Rings as Promising Antitumor Agents” (Molecules, 2023)
